Like-named read-outs stand apart in the source and are kept apart here. Marks after values point to notes of the source that are not given here.
B1: recombinant SCL: SCL expressed in mouse L cells transfected with plasmid containing the cloned gene, hexamethasone-inducible promoter (protein)
chain: SIHFSSPVFTSRSAAFSGRGAQVRLSSARPGGLGSSSLYGLGASRPRVAVRSAYGGPVGAGIREVTINQSLLAPLRLGADPFSQRVRQEESEQIKTLNNKFASFIDKVRFLEQQNKLLETKWTLLQEQKSAKSSRLPDIFEAQIAGLRGQLEAMQVDGGRLEQGLRTMQDVVEDFKNKYEDEINRRTAAENEFVVLKKDVDAAYMSKVELEAKVDALNDEINFLRTLNETELTELQSQISDTSVVLSMDNSRSLDLDGIIAEVKAQYEEMAKCSRAEAEAWYQTKFETLQAQAGKHGDDLRNTRNEISEMNRAIQRLQAEIDNIKNQRAKLEAAIAEAEERGELALKDARAKQEELEAALQRAKQDMARQLREYQELMSVKLALDIEIATYRKLLEGEESRLAGDGVGAANISVMNSTGGSSSGGGIGLTLGGTMGSNALSFSSSAGPGLLKAYSIRTASASRRSTRD
B2: SCL: SCL excreted in the H-1 medium by PBMC over 24 hours maintained without serum (protein)
chain: B1 chain

Legend:
[1] = tested on: murine sarcolectin; experiment: Action of simple sugars on the agglutination of cells by sarcolectin; type: cell-based, Swiss mice; conditions: in the presence of 2 agglutinating units of murine sarcolectin; H9 cells
Description: A wide variety of cells originating either from rodents or from primates was tested. Agglutination is obtained by suspending the cells in an MEM medium in the absence of serum. The test may be carried out in two ways, either in the presence of a sarcolectin dilution range in a base 2 geometric progression, by identifying the concentration at which 50% of the cells are agglutinated, or by identifying the affinity of the various sugars for the cell receptors.
In the example shown, murine sarcolectin originating from the ascitic fluid of Swiss mice grafted with Crocker TG180 sarcoma contains 32 units agglutinating the H9 cells which originate from a T lymphoma, fixed by 10% formaldehyde.
The table below illustrates the affinity of the receptors for the various sugars in the presence of 2 agglutinating units.

[2] = tested on: TG-180 tumour cells; experiment: Antitumour action on grafted TG-180 ascitic tumour; conditions: for anti-tumour effect (in words): TG-180 graft in mice
Description: In order to test the antitumour capacity of SCL inhibiting sugars, TG-180 tumour cells originating from a tumour resistant to chemical metabolic inhibitors was grafted. In a concentration of 3×10^6 cells injected i.p. into 20 gr Swiss mice, an ascitic tumour is obtained which is detectable in 10 days and kills practically 100% of the animals in 21-25 days.
In parallel series, the various groups of animals were treated 3 days after inoculation, either with a specific sugar (glucosamine, lactose, galacturonate, N.A.N.A., neuramine-lactose) in a 5 to 10% solution, the sugar concentration being 100 mM, or with the same treatment in association with an injection of immuno-stimulant (extract of corynebacterium parvum, Merieux, France), in a dose of 200 g/mouse, or interferon, or both.
4 groups of mice per experiment were used.
They are assessed by the percentage of tumours that appeared on the 10th day, the mean survival time of the animals (MST) in. days, and the final survival (as a percentage).

[3] = tested on: encephalomyocarditis virus (EMC); experiment: Protection of IFN against the encephalomyocarditis virus in Swiss mice, with SCL inhibiting sugars; type: in vivo; conditions: EMC virus i.p.
Description: The model used is the encephalomyocarditis virus (EMC) which kills mice in practically all cases after rather varying but relatively short incubation periods.
Male mice (average weight: […], aged 8 to 10 weeks) were injected i.p. with sodium galacturonate, glucosamine and N-acetylneuraminic acid (5 to 10% solutions containing 100 mM sugar). 24 hours afterwards, one hundred lethal doses (50%) of EMC virus are injected by the same route. After one hour, murine interferon is injected (in a dose of 20,000 units in 0.5 ml). Table 3 gives the number of animals surviving out of the total tested, the percentage and statistical significance.

[4] = tested on: T (lympho) cells; experiment: Stimulation over 24 hours of the synthesis of DNA in T (lympho) cells; type: cell-based
Description: XI Stimulation over 24 hours of the synthesis of DNA in T (lympho) cells

[5] = tested on: action of interferon (antiviral state against vesicular stomatitis virus) in mouse L cells; type: cell-based
[6] = single agent (+MEM, or IFN in reference group)
[7] = IL2 (100 u) +SCL + inhibitor (NANA 0.75 mmol.; oligo 41-55 3 μγ/ml)

| Molecule | Final survival (%) ([2]; +CP) | Final survival, Number ([2]; +CP) | MST (mean survival time) ([2]; +CP) [days] | Tumours on 10th day (%) ([2]; +CP) | Tumours on 10th day, number ([2]; +CP) | Final survival (%) ([2]; +CP +IFN) | Final survival, Number ([2]; +CP +IFN) | MST (mean survival time) ([2]; +CP +IFN) [days] | Tumours on 10th day (%) ([2]; +CP +IFN) | Tumours on 10th day, number ([2]; +CP +IFN) | Final survival (%) ([2]; +IFN) | Final survival, Number ([2]; +IFN) | MST (mean survival time) ([2]; +IFN) [days] | Tumours on 10th day (%) ([2]; +IFN) | Tumours on 10th day, number ([2]; +IFN) | Final survival (%) ([2]; agent alone) | Final survival, Number ([2]; agent alone) | MST (mean survival time) ([2]; agent alone) [days] | Tumours on 10th day (%) ([2]; agent alone) | Tumours on 10th day, number ([2]; agent alone) | also measured |
| --- | --- | --- | --- | --- | --- | --- | --- | --- | --- | --- | --- | --- | --- | --- | --- | --- | --- | --- | --- | --- | --- |
| OC[C@H]1OC(O)[C@H](O)[C@@H](O)[C@H]1O (some centres unmarked) [D galactose] |  |  |  |  |  |  |  |  |  |  |  |  |  |  |  |  |  |  |  |  | affinity [1]: 0.28 mM |
| NCCCC(=O)O [GABA, gamma aminobutyric acid] | (53) % | 24 | 68 ± 11 | 55 | 25 | (56) % | 17 | 70 ± 13 | 23% | 7 | (24) % | 11 | 43 ± 10 | 42 | 19 | (13) % | 4 | 35 ± 9 | 46 | 14 | anti-tumour effect (in words) [2]: inhibit oncogenesis significantly |
| N[C@H]1C(O)O[C@H](CO)[C@@H](O)[C@@H]1O (some centres unmarked) [Glucosamine, glucosamine] | (53) % | 40 | 67 ± 8 | 34 | 26 | (58) % | 35 | 70 ± 9 | 28% | 17 | (17) % | 8 | 39 ± 9 | 13 | 6 | (6) % | 1 | 28 ± 6 | 20 | 3 | number of animals surviving out of the total number tested [3, 6]: 1/30; percentage surviving [3, 6]: 3%; number of animals surviving out of the total number tested ([3]; sugar +IFN (20,000 units)): 14/45b; percentage surviving ([3]; sugar +IFN (20,000 units)): 31%; Final survival (%) ([2]; +CP, listed as glucosamine): 53% |
| OC[C@H]1O[C@@H](O[C@H]2[C@H](O)[C@@H](O)C(O)O[C@@H]2CO)[C@H](O)[C@@H](O)[C@H]1O (some centres unmarked) [Lactose, lactose] | (46) % | 14 | 82 ± 13 | 10 | 3 | (64) % | 29 | 75 ± 10 | 13% | 6 | (13) % | 6 | 64 ± 9 | 20 | 9 | (3) % | 1 | 26 ± 6 | 36 | 11 | Final survival (%) ([2]; +CP, listed as lactose): 43% |
| CC(=O)N[C@H]1C(O)O[C@H](CO)[C@@H](O)[C@@H]1O (some centres unmarked) [N-acetylglucosamine] |  |  |  |  |  |  |  |  |  |  |  |  |  |  |  |  |  |  |  |  | anti-tumour effect (in words) [2]: comparable anti-tumour effects |
| O=C[C@H](O)[C@@H](O)[C@@H](O)[C@H](O)C(=O)[O-].[Na+] [Na galacturonate, sodium galacturonate] | (20) % | 3 | 42 ± 16 | 13 | 2 | (73) % | 11 | 81 ± 17 | 6% | 1 | (13) % | 2 | 34 ± 15 | 40 | 6 | (6) % | 1 | 31 ± 10 | 20 | 3 | number of animals surviving out of the total number tested [3, 6]: 6/75; percentage surviving [3, 6]: 8%; number of animals surviving out of the total number tested ([3]; sugar +IFN (20,000 units)): 22/90a; percentage surviving ([3]; sugar +IFN (20,000 units)): 24% |
| O=C([O-])C1OC(O)C(O)C(O)C1O.[Na+] (centres unmarked) [Na glucuronate, reference compound] |  |  |  |  |  |  |  |  |  |  |  |  |  |  |  |  |  |  |  |  | number of animals surviving out of the total number tested [3, 6]: 6/45; percentage surviving [3, 6]: 13%; number of animals surviving out of the total number tested ([3]; sugar +IFN (20,000 units)): 5/45; percentage surviving ([3]; sugar +IFN (20,000 units)): 11%; anti-tumour effect (in words) [2]: comparable anti-tumour effects |
| CCC(N)C(=O)O (stereo not drawn) [alphaaminobut., alpha aminobutyric acid] | (23) % | 7 | 55 ± 14 | 60 | 18 | (47) % | 14 | 62 ± 14 | 23% | 7 | (0) % | 0 | 25 ± 2 | 30 | 9 | (0) % | 0 | 26 ± 1 | 63 | 19 |  |
| CC(C)(N)C(=O)O [alphaaminoiso., alpha aminoisobutyric acid] | (43) % | 13 | 66 ± 13 | 46 | 14 | (47) % | 14 | 64 ± 13 | 4d % | 12 | (13) % | 4 | 31 ± 10 | 50 | 15 | (7) % | 2 | 31 ± 7 | 20 | 6 | anti-tumour effect (in words) [2]: inhibit oncogenesis significantly |
| OC[C@H]1O[C@@H](O[C@H]2[C@H](O)[C@@H](O)[C@@H](O)O[C@@H]2CO)[C@H](O)[C@@H](O)[C@H]1O [α lactose] |  |  |  |  |  |  |  |  |  |  |  |  |  |  |  |  |  |  |  |  | affinity [1]: 0.125 mM |
| OC[C@H]1O[C@@H](O[C@H]2[C@H](O)[C@@H](O)[C@H](O)O[C@@H]2CO)[C@H](O)[C@@H](O)[C@H]1O [β lactose] |  |  |  |  |  |  |  |  |  |  |  |  |  |  |  |  |  |  |  |  | affinity [1]: 0.25 mM |
| oligo 41-55: peptide SEQ ID NO: 5, position 41 to 55 in SEQ ID NO: 1 (GLGASRPRVAVRSAY; listed as Homo sapiens) |  |  |  |  |  |  |  |  |  |  |  |  |  |  |  |  |  |  |  |  | effect on the stimulation of DNA synthesis by SCL (in words) ([4]; 24 hours): inhibited; synthesis of DNA, EXP. N° 1 [4, 7]: 4,674 ± 832.52; synthesis of DNA, EXP. N° 2 [4, 7]: 23,184 ± 2494 |
| B1 |  |  |  |  |  |  |  |  |  |  |  |  |  |  |  |  |  |  |  |  | limit dilution of SCL at which the action of the interferon was completely blocked ([5]; 200 IU of interferon for 5 hours, then SCL in base 2 dilutions): 1/32; IFN titer ([5]; A: IFN + SCL induced by hexamethasone): <2 U; IFN titer ([5]; A: IFN + SCL non-induced): >5120 U; SCL titer (concentration of SCL which inhibits by 100% the antiviral state) ([5]; B: IFN 200 U + SCL): 32 U. 50%*; effect on antiviral state (in words) ([5]; interferon 5 hours, then SCL 18 hours): blocks the state of the antiviral effect |
| B2 |  |  |  |  |  |  |  |  |  |  |  |  |  |  |  |  |  |  |  |  | effect on synthesis of DNA (in words) ([4]; 24 hours): stimulates the synthesis of DNA; synthesis of DNA, EXP. N° 1 ([4]; IL2 (100 u) +SCL, 24 hours): 6,167 ± 483.66; synthesis of DNA, EXP. N° 2 ([4]; IL2 (100 u) +SCL, 24 hours): 35,438 ± 10.370 |

From patent US6774220B1, “Compounds having lectinic properties and their biological applications” (Association pour le Développement de la Biothérapie …, priority 1995, dated 2004)
